This note sets out measurements from patent US6316485A, “1,5-diphenylpyrazole derivatives” (Fujisawa Pharmaceutical Co., Ltd., priority 1997, dated 2001).

In general, IC50 refers to the concentration that gives 50% inhibition.

One experiment deals with T1, Human COX-II (Homo sapiens, UniProt P35354).
T1 construct: made in house; host or cells: stably transfected Chinese hamster ovary (CHO) cells; 1700×g supernatant of sonicated cells used as crude enzyme
T1 sequence (P35354 18-604): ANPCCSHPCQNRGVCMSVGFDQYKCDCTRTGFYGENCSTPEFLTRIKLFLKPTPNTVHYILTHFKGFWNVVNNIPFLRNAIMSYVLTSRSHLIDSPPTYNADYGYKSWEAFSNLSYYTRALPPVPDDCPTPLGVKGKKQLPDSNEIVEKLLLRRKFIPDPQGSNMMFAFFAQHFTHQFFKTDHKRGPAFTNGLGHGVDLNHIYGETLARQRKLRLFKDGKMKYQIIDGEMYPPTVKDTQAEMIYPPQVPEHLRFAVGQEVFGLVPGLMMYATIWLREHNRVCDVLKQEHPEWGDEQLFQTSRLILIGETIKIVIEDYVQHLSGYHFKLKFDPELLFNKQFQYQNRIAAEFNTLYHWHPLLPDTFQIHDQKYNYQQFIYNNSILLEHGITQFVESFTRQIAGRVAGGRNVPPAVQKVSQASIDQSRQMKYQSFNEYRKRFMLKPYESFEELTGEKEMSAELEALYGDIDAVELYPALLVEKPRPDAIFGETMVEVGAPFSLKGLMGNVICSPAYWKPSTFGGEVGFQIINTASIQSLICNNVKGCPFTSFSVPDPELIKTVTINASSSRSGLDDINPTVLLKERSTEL
The experiment is described as follows: Human recombinant COX-II activity in vitro (PGE2 formation, radioimmunoassay). The settings on record: recombinant human COX-II expressed in CHO cells; arachidonic acid 10 μM; PGE2 by radioimmunoassay. Format: biochemical. The method, then: (§1) a. Preparation of the recombinant cyclooxygenase (COX)
(§2) The human cyclooxygenase COX-I and COX-II were expressed in transfected Chinese hamster ovary (CHO) cells. Monolayer cultures of semi-confluent CHO cells stably expressing COX-I and COX-II were washed twice and scraped into phosphate buffered saline (PBS). The cells were centrifuged at 200×g for 5 minutes and the cell pellet was sonicated in reaction buffer containing 100 mM Tris-HCl (pH 7.4), 2 μM hematin and 5 mM tryptophan. Broken cells were centrifuged for 5 minutes at 1700×g at 4° C. and the supernatants were used as crude enzymes.
(§3) Cyclooxygenase activities in the absence or presence of inhibitors were measured by determining the level of prostaglandin E2 (PGE2) synthesis from arachidonic acid. Enzymes (1 μg for COX-I and/or 3 μg for COX-II) in a total volume of 200 μl of reaction buffer were incubated in the absence and presence of various concentrations of inhibitors for 5 minutes at 30° C. The reaction was then started by the addition of arachidonic acid to the final concentration of 10 μM. The reaction was terminated by 50 μl of HCl (1N) after incubation at 30° C. for 5 minutes. PGE2 was extracted with ethyl acetate, concentrated under a stream of nitrogen and analyzed by a radio immunoassay kit (Amersham) according to the manufacture's instructions.
(§4) b. Assay for human recombinant COX-I and COX-II activity
(§5) COX activity was assayed as PGE2 formation using radioimmunoassay to detect the prostaglandin release. The appropriate COX enzyme was incubated in 0.1 M Tris-HCl buffer (pH 7.3) containing hematin and tryptophan with the addition of arachidonic acid (10 μM) for 5 minutes at 37° C. Compounds were pre-incubated with the enzyme for 5 minutes prior to the addition of arachidonic acid. Any reaction between the arachidonic acid and the enzyme was stopped after 5 minutes at 37° C. by addition of 20 μl of 1N HCl. PGE2 formation was measured by radioimmunoassay (Amersham).

Another experiment addresses T2, Human COX-I (Homo sapiens, UniProt P23219).
T2 construct: made in house; host or cells: stably transfected Chinese hamster ovary (CHO) cells; 1700×g supernatant of sonicated cells used as crude enzyme
The experiment is described as follows: Human recombinant COX-I activity in vitro (PGE2 formation, radioimmunoassay). It counts as biochemical. Particulars: recombinant human COX-I expressed in CHO cells; arachidonic acid 10 μM; PGE2 by radioimmunoassay. How it is done: as §1, §2, §3, §4, §5

Experiment [1] deals with Adjuvant Arthritis in Rats. As to the kind of experiment: Effect on Adjuvant Arthritis in Rats (antiinflammatory activity). Format: in vivo, female Sprague-Dawley rats. The settings on record: 1.0 mg/kg, orally once a day for 23 days; paw volume on day 23 vs vehicle-treated controls.

T2 sequence (P23219 24-599): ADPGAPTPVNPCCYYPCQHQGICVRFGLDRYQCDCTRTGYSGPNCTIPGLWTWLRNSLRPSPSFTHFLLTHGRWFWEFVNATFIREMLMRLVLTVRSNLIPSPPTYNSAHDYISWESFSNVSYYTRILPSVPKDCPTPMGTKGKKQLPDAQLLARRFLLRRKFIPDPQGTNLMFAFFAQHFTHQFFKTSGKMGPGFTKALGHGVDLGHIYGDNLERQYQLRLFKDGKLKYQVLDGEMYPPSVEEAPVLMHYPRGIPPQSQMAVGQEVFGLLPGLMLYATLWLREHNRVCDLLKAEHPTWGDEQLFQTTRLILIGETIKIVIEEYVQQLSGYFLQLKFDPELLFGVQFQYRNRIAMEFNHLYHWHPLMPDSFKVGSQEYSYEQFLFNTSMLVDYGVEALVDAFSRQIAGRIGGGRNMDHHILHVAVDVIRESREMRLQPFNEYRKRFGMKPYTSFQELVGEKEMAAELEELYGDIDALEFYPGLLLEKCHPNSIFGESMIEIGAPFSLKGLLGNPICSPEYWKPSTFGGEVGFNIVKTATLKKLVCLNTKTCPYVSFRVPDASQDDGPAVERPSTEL

`Cc1cc(-n2nc(C#N)cc2-c2ccc(S(C)(=O)=O)cc2)ccc1F` [Example 6, 1-(4-fluoro-3-methylphenyl)-5-[4-(methylsulfonyl)phenyl]pyrazole-3-carbonitrile]: the figures for the IC50 on Human COX-II and at Human COX-I were less than 1 µM and greater than 100 µM, respectively.
Consider `Cc1cccc(-n2nc(C(F)(F)F)cc2-c2ccc(S(C)(=O)=O)cc2)c1` [Example 1, 1-(3-methylphenyl)-5-[4-(methylsulfonyl)phenyl]-3-(trifluoromethyl)pyrazole], for which, in experiment [1], the “Inhibition of secondary lesion (uninjected paw)” value is given as no less than 60%.
As to `COc1ccc(-n2nc(Cl)cc2-c2ccc(S(C)(=O)=O)cc2)cc1Cl` [10-(8), 3-Chloro-1-(3-chloro-4-methoxyphenyl)-5-[4-(methylsulfonyl)phenyl]pyrazole], the “Inhibition of secondary lesion (uninjected paw)” value in experiment [1] is no less than 60%. Also, the results for the half-inhibitory concentration (IC50) at Human COX-II and at Human COX-I were less than 1 µM and greater than 100 µM, respectively.
For `Cc1ccc(-n2nc(C(F)F)cc2-c2ccc(S(C)(=O)=O)cc2)cc1Br` [3-(16), 1-(3-Bromo-4-methylphenyl)-3-(difluoromethyl)-5-[4-(methylsulfonyl)phenyl]pyrazole], the 50% inhibitory concentration (IC50) on Human COX-II is less than 1 µM; at Human COX-I it was greater than 100 µM.
